Six molecules from US9329184B2, “Fluorescent probe” (THE UNIVERSITY OF TOKYO, priority 2011, dated 2016) can be followed below.

The test system of one series is leucine aminopeptidase. The experiment in a line: Reaction of fluorescent probe with leucine aminopeptidase (absorption/fluorescence before and after). Type of series: biochemical. To be noted: for absorption maximum wavelength: 0.1 M sodium phosphate buffer pH 7.4, 37° C., before/after reaction with leucine aminopeptidase. The protocol:
(§1) Fluorescence was measured with an excitation wavelength of 593 nm.
Function of Leu-SiR600 as a fluorescent probe was evaluated by reacting it with leucine aminopeptidase. Leucine aminopeptidase (0.096 unit) was added to Leu-SiR600 (6 μM), and the mixture was reacted for 2.5 hours. The reaction performed at 37° C. in a 0.1 M sodium phosphate buffer (pH 7.4, 0.75 ml) containing 0.8% DMSO. The absorption spectra and fluorescence spectra observed before and after the reaction are shown in FIG. 7, (b) and (c), respectively.

The nature of series [1]: Absorption and fluorescence spectra and pH profiles in sodium phosphate buffer. The class given is physicochemical. To be noted: for pH-dependent change of absorbance / λabs / λfl: 0.1 M sodium phosphate buffer containing 1% DMSO; for pH-dependent change of absorbance: pH profile; for λabs / λfl: Table 1. The protocol:
as §1
Fluorescence was measured with an excitation wavelength of 505 nm.
Fluorescence was measured with an excitation wavelength of 590 nm.
Absorption and fluorescence spectra as well as pH profiles of 2-Me SiR600 and the acetylated compound thereof (N-Ac-2-Me SiR600) synthesized in Example 2 were measured. […] Therefore, 2-Me SiR600 in which the amino group at the 3-position is acylated can be functioned as a fluorescent probe for detecting enzymatic activity on the basis of absorption wavelength change with a high S/N ratio, without using the intramolecular photoinduced electron transfer.
In a similar manner, absorption and fluorescence spectra as well as pH profiles of 2-COOH SiR600 and the acetylated compound thereof were measured. […] Therefore, it can be used as a fluorescent probe as shown in the following scheme.
Absorption spectrum of Z-DEVD-SiR600 was measured in a 0.1 M sodium phosphate buffer of pH 3 to 10 containing 1% DMSO. The measurement results are shown in FIG. 5, and the photochemical characteristics are shown in Table 3 mentioned below together with the results for SiR600.

In the next series the test system is caspase-3. Kind of series: Reaction of fluorescent probe with caspase-3 (absorption/fluorescence before and after). The class given is biochemical. Particulars: for absorption maximum wavelength: 20 mM HEPES buffer pH 7.4, 37° C., before/after reaction with caspase-3. The protocol: as §1
Function of Z-DEVD-SiR600 as a fluorescent probe was evaluated by reacting it with caspase-3. Caspase-3 (0.5 μg) was added to Z-DEVD-SiR600 (2 μM), and the mixture was reacted for 10 hours. The reaction was performed at 37° C. in a 20 mM HEPES buffer (pH 7.4, 0.75 ml) containing 100 μM dithiothreitol (DTT), 10% glycerol, 0.1% CHAPS, 100 mM NaCl, and 0.1% DMSO. The absorption spectra and fluorescence spectra observed before and after the reaction (excitation wavelengths are shown in FIG. 6, (b) and (c), respectively, and the kinetics parameters of the reaction are shown in FIG. 6, (d)).

With `Cc1ccccc1C1=C2C=CC(=N)C=C2[Si](C)(C)c2cc(NC(=O)[C@H](N)CC(C)C)ccc21` [Leu-SiR600], the absorption maximum wavelength entry in the series on leucine aminopeptidase was “around 500 nm”. Further, the “fluorescence before and after the reaction with leucine aminopeptidase” value with leucine aminopeptidase (probe 6 μM, leucine aminopeptidase 0.096 unit, 2.5 hours, 37° C., excitation light 593 nm) is recorded as “scarcely observed before the reaction, but extremely strong fluorescence is observed after the reaction”.
For the molecule `Cc1ccccc1C1=C2C=CC(=N)C=C2[Si](C)(C)c2cc(N)ccc21` [2-Me SiR600], in series [1], the “pH-dependent change of absorbance” value is reported as “did not substantially show pH-dependent change of absorbance”, the λabs was 593 nm and the λfl was found to be 613 nm. In addition, the maximum absorption wavelength in series [1] (Example 4) is 593 nm. In series [1] (Table 3, pH 7.4), this molecule gave a ΦFL of 0.38, a ε of 91000 M⁻¹ cm⁻¹, a λem of 613 nm and a λex of 593 nm. This molecule gave an absorption maximum wavelength in the series on leucine aminopeptidase of 593 nm. In the series on caspase-3, this molecule had an absorption maximum wavelength of 593 nm.
As for `C[Si]1(C)c2cc(N)ccc2C2(OC(=O)c3ccccc32)c2ccc(N)cc21` [2-COOH SiR600], in series [1], the “pH-dependent change of absorbance” value is listed as “did not substantially show absorbance change at pH higher than the physiological pH region”. In addition, in series [1] (Table 2, pH 7.4), the ΦFL worked out at 0.26, the ε is 4000 M⁻¹ cm⁻¹, the λem came out at 610 nm and the λex was determined as 590 nm.
Turning to `CC(=O)Nc1ccc2c(c1)[Si](C)(C)C1=CC(=N)C=CC1=C2c1ccccc1C` [N-Ac-2-Me SiR600, N-Acetyl-2-Me SiR600], in series [1], the “pH-dependent change of absorbance” value is “decreased with decrease of pH”, the λabs is reported as 505 nm and the λfl was determined as 600 nm. The “shift of maximum absorption wavelength compared with 2-Me SiR600” value in series [1] (acetylation of the amino group at the 3-position) is “significantly shifted to the shorter wavelength side”.
Consider Z-DEVD-SiR600, for which the “pH-dependent change of absorbance” value in series [1] is listed as “showed pH-dependent absorbance change”. Moreover, in series [1] (Table 3, pH 3.0), the ΦFL was 0.19, the ε was determined as 85000 M⁻¹ cm⁻¹, the λem stood at 600 nm and the λex came out at 500 nm. For the same molecule, the “absorption of light around 593 nm” value in series [1] (around the maximum absorption wavelength of SiR600) was “did not absorb light around the maximum absorption wavelength (593 nm) of SiR600”. Also, the absorption maximum wavelength entry in the series with caspase-3 was “around 500 nm”. Further, in the series on caspase-3 (probe 2 μM, caspase-3 0.5 μg, 10 hours, 37° C., excitation light 593 nm), the “fluorescence before and after the reaction with caspase-3” value is “scarcely observed before the reaction, but extremely strong fluorescence is observed after the reaction”.
Consider `CC(=O)Nc1ccc2c(c1)[Si](C)(C)c1cc(N)ccc1C21OC(=O)c2ccccc21` (stereo not drawn) [N-Acetyl-2-COOH SiR600], for which the “absorption for the visible region” value in series [1] (physiological pH range) is “not to show absorption for the visible region in the physiological pH range”.
